Results on 3 molecules are retold here after US11767330B2, “Citrate salt, pharmaceutical compositions, and methods of making and using the same” (Foghorn Therapeutics Inc., priority 2021, dated 2023).

Data set [1] addresses T1, BRD9 (Homo sapiens, UniProt Q9H8M2).
T1 sequence (Q9H8M2 1-597): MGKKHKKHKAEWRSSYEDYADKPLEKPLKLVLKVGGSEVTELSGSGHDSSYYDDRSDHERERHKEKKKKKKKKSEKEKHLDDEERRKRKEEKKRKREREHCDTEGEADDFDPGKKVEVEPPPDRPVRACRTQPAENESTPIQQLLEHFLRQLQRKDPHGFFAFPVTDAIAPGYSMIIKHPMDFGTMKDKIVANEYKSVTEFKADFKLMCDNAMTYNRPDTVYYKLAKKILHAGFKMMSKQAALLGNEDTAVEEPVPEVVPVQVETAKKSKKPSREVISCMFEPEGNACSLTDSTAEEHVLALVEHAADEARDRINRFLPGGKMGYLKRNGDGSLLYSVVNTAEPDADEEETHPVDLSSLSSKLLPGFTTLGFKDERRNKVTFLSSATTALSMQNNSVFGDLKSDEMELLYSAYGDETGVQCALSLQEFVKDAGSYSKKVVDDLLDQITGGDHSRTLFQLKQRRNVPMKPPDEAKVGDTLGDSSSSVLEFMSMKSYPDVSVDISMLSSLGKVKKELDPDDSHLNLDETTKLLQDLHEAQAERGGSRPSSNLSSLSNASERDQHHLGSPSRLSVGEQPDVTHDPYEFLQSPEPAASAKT
In words: Pharmacodynamic BRD9 level in SYO-1 xenograft, western blot (Example 14). It counts as in vivo, mice. Further details: Tumors were lysed with 1×RIPA lysis buffer; from tissue; host or cells: SYO-1 xenograft tumours in BALB/c Nude mice. Conditions: SYO-1 Xenograft model; for pharmacodynamic activity, BRD9 protein level by western blot: BALB/c Nude mice, single dose i.v. (Table 6). (In general: A western blot detects proteins with antibodies after separation by electrophoresis.)

Data set [2] deals with T1, BRD9. In words: BRD9 degradation western blot in SYO-1 cells (Example 13). The format is cell-based. Also noted: degradation endogenous BRD9 protein in two synovial sarcoma cell lines; endogenous in cells; host or cells: SYO1 (SYO-1) synovial sarcoma cells. Conditions: for DC50: read-out: Fitted DC50; for degradation of endogenous BRD9 protein at early time point: two synovial sarcoma cell lines (SYO-1 and ASKA). The protocol:
(§1) Synovial sarcoma cells were plated in 6-well plate at 500-100k cells/well and treated with serial concentrations of BRD9 degrader (10 nM top concentration, diluted 1:3) the next day for two time points at 37° C. Cells were then harvested, washed with cold PBS, and frozen in cell pellets at −80° C. Lysates were prepared by resuspending thawed pellets in 1×RIPA Lysis and Extraction buffer (Thermo Fisher, Cat #89900) with 1× Halt™ Protease and Phosphatase Inhibitor Cocktail, EDTA-free (Thermo Fisher, Cat #78441) and 1:1000 dilution Pierce™ Universal Nuclease for Cell Lysis 25 ku (Thermo Fisher, Cat #88700). Lysates were incubated on ice for 10 minutes and then centrifuged in 4° C. at maximum speed (15,000 rpm) for 10 minutes. Samples were then analyzed for total protein using BCA protein quantification assay and diluted to 1 μg/μL with lysis buffer and 1× NuPAGE™ LDS Sample Buffer (4×) (Thermo Fisher, Cat #NP0007) and 1×DTT from 30× stock (Cell Signaling Technologies, Cat #14265S). Samples with 20-25 ug of total protein were loaded into 4-12% Bis-Tris Mini-Gel with 1×MES Running buffer and run at 150V for 45 minutes. Gels were transferred using Trans-Blot® Turbo™ Transfer System (semi-dry) at 25V for 10 minutes (High MW setting) on nitrocellulose blots. Blots were blocked in 5% milk in TBST for 1 hour and probed with BRD9 antibody (Bethyl Labs, Cat #A303-781A, 1:750 for SYO1, and Cell Signaling Technologies, Cat #71232S for ASKA) and beta-Actin antibody (Cell Signaling Technologies, Cat #3700, 1:2,000) overnight at 4° C. The next day, blots were washed in TBST 3× and probed with 1:5,000 IRDye® 680LT Goat anti-Rabbit IgG Secondary Antibody (LiCOR, Cat #926-68021) and 1:10,000 IRDye® 800CW Goat anti-Mouse IgG Secondary Antibody (LiCOR, Cat #926-32210) in LiCOR Odyssey® Blocking Buffer (TBS) for 1 hour at room temperature. Blots were washed in TBST 3× and scanned at […] wavelength using LiCOR Odyssey® CLx Imaging System. Western blot signal was quantified using same analyses program included in the same machine. BRD9 signal was quantified by normalizing to beta-actin signal and all samples were normalized to DMSO, set as 100% signal.

In data set [3] the target is T1, BRD9. In words: BRD9 degradation western blot in ASKA cells (Example 13). The format is cell-based. Further details: degradation endogenous BRD9 protein in two synovial sarcoma cell lines; endogenous in cells; host or cells: ASKA synovial sarcoma cells. Conditions: for DC50: read-out: Fitted DC50. The protocol: as §1, with “Synovial sarcoma cells were plated in 6-well plate at 500-100k cells/well and treated with serial concentrations of BRD9 degrader (10 nM top concentration, diluted 1:3) the next day for two time points at 37° C.” left out

Data set [4] can be described thus: Interconversion between Enantiomer 1 and Enantiomer 2 in cell medium (chiral LC/MS-MS). It counts as physicochemical. Conditions: 0.2 μM dosed enantiomer, cell medium 37° C. The protocol: For the assessment of interconversion between Enantiomer 1 and Enantiomer 2 in cell medium, the following test was performed. […] At designated time point, aliquot (50 μL) was taken and processed by the addition of 150 μL of acetonitrile containing 0.1% formic acid and internal standard for LC/MS-MS analysis. Peak areas of both Enantiomer 1 and Enantiomer 2 were determined for each sample using a chiral specific analytical method.

In data set [5] the test system is non-synovial control cancer cell lines (RD, HCT116, and Calu6). In words: Growth of non-synovial control cancer cell lines, crystal violet day 14 (Example 3). Conditions: daily treatment. It counts as cell-based. The protocol: (§2) Procedure: Cells were seeded into 6-well or 12-well plates and were treated daily with a BRD9 degrader (Compound 1), a bromo-domain BRD9 binder (Compound 2), E3 ligase binder (lenalidomide), DMSO, or staurosporin (positive control for cell killing), at indicated concentrations. The number of cells was optimized for each cell line. Growth media was refreshed every 5 days. By day 14, medium was removed, cells were washed with PBS, and stained using 500 μL of 0.005% (w/v) crystal violet solution in 25% (v/v) methanol for at least 1 hour at room temperature. Subsequently plates were scanned on an Odyssey CLx Imaging system.

In data set [6] the test system is synovial sarcoma cell lines (SYO1, Yamato, HS-SY-II, and ASKA). In words: Growth of synovial sarcoma cell lines, IncuCyte confluency / crystal violet / colony imaging (Example 2). Conditions: FIGS. 4, 5, 6. It counts as cell-based. The protocol: (§3) Cells were treated with DMSO or the BRD9 degrader, Compound 1, at indicated concentrations, and proliferation was monitored from day 7 to day 14 by measuring confluency overtime using an IncuCyte live cell analysis system (FIG. 4). Growth medium and compounds were refreshed every 3-4 days.
(§4) Cells were seeded into 12-well plates and treated with DMSO, 1 μM BRD9 inhibitor, Compound 2 (also known as BI-7273, see Martin et al, J Med Chem. 59(10):4462-4475 (2016); see structure of compound 2 below), or 1 μM BRD9 degrader, Compound 1.
(§5) The number of cells was optimized for each cell line. Growth medium and compounds were refreshed every 3-5 days. SYO1, Yamato, A549, 293T and HS-SY-II cells were fixed and stained at day 11. ASKA cells were fixed and stained at day 23. Staining was done by incubation with crystal violet solution (0.5 g Crystal Violet, 27 ml 37% Formaldehyde, 100 mL 10×PBS, 10 mL Methanol, 863 dH20 to 1 L) for 30 min followed by 3× washes with water and drying the plates for at least 24 h at room temperature. Subsequently plates were scanned on an Odyssey CLx Imaging system (FIG. 5).
(§6) Cells were seeded into 96-well ultra-low cluster plate (Costar, #7007) in 200 μL complete media and treated at day 2 with DMSO, Staurosporin, or BRD9 degrader, Compound 1, at indicated doses (FIG. 2C). Media and compounds were changed every 5 d and cell colonies were imaged at day 14.

In data set [7] the test system is non-synovial control cancer cell lines (293T, A549, G401). In words: Growth of non-synovial control cancer cell lines (Example 2). It counts as cell-based. The protocol:
as §3, §4, §5, §6

The test system of data set [8] is synovial sarcoma cell lines (SYO1, HS-SY-II, and ASKA). In words: Growth of synovial sarcoma cell lines, crystal violet day 14 (Example 3). The format is cell-based. Conditions: daily treatment. As to the method:
as §2

Entries after “also recorded” stand apart in the source; their conditions may differ. A value given as a limit tells only on which side of the number the result lay.

`COc1cc(-c2cn(C)c(=O)c3cnc(N4CCC4)cc23)cc(OC)c1CN1CCC(CN2CCC3(CC2)CN(c2ccc4c(c2)C(=O)N([C@H]2CCC(=O)NC2=O)C4)C3)CC1` (single isomer, unassigned; enantiomer 1) [Enantiomer 1]: the “pharmacodynamic activity, BRD9 protein level by western blot” value on BRD9 [1] is “inactive and did not degrade BRD9 protein”. The DC50 on BRD9 [2] (SYO-1, 1 h) is 2.8 nM; on BRD9 [2] (SYO-1, 6 h), 0.066 nM; at BRD9 [3] (0.5 h) it was above 10 nM; at BRD9 [3] (2 h), 0.38 nM. Also, the “degradation of endogenous BRD9 protein at early time point” value on BRD9 [2] is “largely inactive or with much reduced degradation potency”. Further, the BRD9 degradation activity entry at BRD9 [3] (30 minutes, up to 10 μM) is given as “no discernable activity”. Further, the results for the “% Enantiomer 2” value in data set [4] (2 h) and in data set [4] (6 h) were 12% and 30%, respectively.
On to `COc1cc(-c2cn(C)c(=O)c3cnc(N4CCC4)cc23)cc(OC)c1CN1CCC(CN2CCC3(CC2)CN(c2ccc4c(c2)C(=O)N([C@@H]2CCC(=O)NC2=O)C4)C3)CC1` (single isomer, unassigned; enantiomer 2) [Enantiomer 2], for which the “pharmacodynamic activity, BRD9 protein level by western blot” value on BRD9 [1] is given as “significant activity; also recorded: equipotent to racemic compound D1”. Moreover, the “duration of BRD9 degradation after a single dose” value at BRD9 [1] (single dose i.v.) is recorded as “degraded BRD9 up to 72 hours after a single dose”. The “difference in DC50 between Enantiomer 1 and Enantiomer 2” value at BRD9 [2] (SYO1, 6 h) was “ca. 3 fold”; on BRD9 [3] (2 h), “about 32 fold”. The “BRD9 degradation compared to racemic compound D1” value on BRD9 [2] (SYO-1, 1 or 6 hours (FIGS. 16 and 17)) was “slightly better than its racemic parent compound D1 in degrading BRD9 but overall comparable”. In addition, the 50% degradation concentration (DC50) on BRD9 [2] (SYO-1, 1 h) came out at 0.092 nM; on BRD9 [2] (SYO-1, 6 h), 0.023 nM; on BRD9 [3] (0.5 h) it was 0.34 nM; on BRD9 [3] (2 h) it was 0.012 nM. For the same molecule, the “active enantiomer in degrading BRD9 in cells” value at BRD9 [2] (overall conclusion of Example 13) is given as “active enantiomer”. The “degradation of endogenous BRD9 protein at early time point” value on BRD9 [2] is “much more potent”. Also, the “% Enantiomer 2” value is recorded as 99% in data set [4] (0 h), 95% in data set [4] (0.5 h), 82% in data set [4] (2 h) and 63% in data set [4] (6 h).
Turning to `COc1cc(-c2cn(C)c(=O)c3cnccc23)cc(OC)c1CN(C)C` [Compound 2], the “growth of non-synovial control cancer cell lines” value is recorded as “did not result in inhibition of the growth” in data set [5] and “does not result in inhibition of the growth” in data set [7]. In addition, the “growth of synovial sarcoma cell lines” value in data set [6] and in data set [8] was “inhibition of the growth of the cells” in each case.

Usually DC50 stands for the concentration giving 50% degradation.
